BigSolDB 2.1

Nc1cccnc1 showed a solubility (mole fraction) (in ethanol, 283.15 K) of 0.438, a solubility (mole fraction) (in ethanol, 288.15 K) of 0.476 and a solubility (mole fraction) (in ethanol, 293.15 K) of 0.518. The solubility (mole fraction) (in ethanol, 298.15 K) was 0.566, the solubility (mole fraction) (in ethanol, 303.15 K) was 0.612 and the solubility (mole fraction) (in ethanol, 308.15 K) was 0.66. For the same compound, the solubility (mole fraction) (in ethanol, 313.15 K) was 0.71, the solubility (mole fraction) (in ethanol, 318.15 K) was 0.764 and the solubility (mole fraction) (in ethanol, 323.15 K) was 0.821. It also gave a solubility (mole fraction) (in toluene, 283.15 K) of 0.0297, a solubility (mole fraction) (in toluene, 288.15 K) of 0.0427 and a solubility (mole fraction) (in toluene, 293.15 K) of 0.0646. For the same compound, the solubility (mole fraction) (in toluene, 298.15 K) was 0.0971, the solubility (mole fraction) (in toluene, 303.15 K) was 0.152 and the solubility (mole fraction) (in toluene, 308.15 K) was 0.223. For the same compound, the solubility (mole fraction) (in toluene, 313.15 K) was 0.313, the solubility (mole fraction) (in toluene, 318.15 K) was 0.418 and the solubility (mole fraction) (in toluene, 323.15 K) was 0.546.
